The target of experiment [1] is horse serum BChE (Equus caballus, UniProt P81908). The experiment is described as follows: biochemical. The format is biochemical. The following applies: n = 3; for Enzyme inhibition (% ± SD) at 10 mM, BChE / inhibition at 10000 µM: at 10 mM; for inhibition at 10000 µM: read-out: Enzyme inhibition (% ± SD) at 10 mM, BChE.
Experiment [2] relates to scopolamine-induced amnesic mice. The experiment is described as follows: Passive avoidance test in scopolamine-induced amnesic mice. The experiment is classed as in vivo.

For orientation: inhibition means the percentage by which the read-out fell short of the control. Usually IC50 stands for the concentration that gives 50% inhibition.

Molecules are shown by their SMILES.

horse serum BChE, sequence (P81908 whole entry): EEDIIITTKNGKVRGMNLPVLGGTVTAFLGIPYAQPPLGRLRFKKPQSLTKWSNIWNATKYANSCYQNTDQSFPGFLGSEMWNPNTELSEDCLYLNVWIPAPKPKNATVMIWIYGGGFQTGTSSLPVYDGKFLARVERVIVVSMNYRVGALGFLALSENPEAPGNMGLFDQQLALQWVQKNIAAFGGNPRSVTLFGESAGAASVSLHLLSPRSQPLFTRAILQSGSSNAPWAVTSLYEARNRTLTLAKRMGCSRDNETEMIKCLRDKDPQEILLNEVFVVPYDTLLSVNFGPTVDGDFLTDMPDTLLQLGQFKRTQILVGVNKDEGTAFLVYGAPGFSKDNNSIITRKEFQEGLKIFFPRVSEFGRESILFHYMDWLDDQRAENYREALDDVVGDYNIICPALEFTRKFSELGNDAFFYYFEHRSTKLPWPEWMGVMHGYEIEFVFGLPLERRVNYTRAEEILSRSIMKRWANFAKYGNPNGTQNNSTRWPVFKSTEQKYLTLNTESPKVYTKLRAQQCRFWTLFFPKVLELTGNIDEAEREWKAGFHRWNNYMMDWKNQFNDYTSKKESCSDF

Consider `O=c1cc(-c2ccc(O)c(-c3c(O)cc(O)c4c(=O)cc(-c5ccc(O)cc5)oc34)c2)oc2cc(O)cc(O)c12` [Amentoflavone], for which, in experiment [1], the “Enzyme inhibition (% ± SD) at 10 mM, BChE” value (shortened to “Enzyme inhibition (% ± SD)”) is on record as “no inhibition”. Besides, the inhibition at 10000 µM in experiment [1] (± SD) is less than 0%.

For the compound `O=c1cc(-c2ccc(O)cc2)oc2cc(O)cc(O)c12` [Apigenin], the inhibition at 10000 µM in experiment [1] (± SD) was less than 0%.

`O=C(/C=C/c1ccc(O)c(O)c1)O[C@@H]1C[C@](O)(C(=O)O)C[C@@H](O)[C@H]1O` [Chlorogenic acid]: in experiment [1] (± SD), the inhibition at 10000 µM is 25.4 ± 1.72%.

With `O=c1oc2c(O)c(O)cc3c(=O)oc4c(O)c(O)cc1c4c23` [Ellagic acid], the “Enzyme inhibition (% ± SD)” value in experiment [1] was “no inhibition”. In experiment [1] (± SD), the inhibition at 10000 µM was less than 0%.

With `O=c1c(O)c(-c2ccc(O)c(O)c2)oc2cc(O)ccc12` [Fisetin], in experiment [1] (± SD), the inhibition at 10000 µM was 76.2 ± 2.48% and half-maximal inhibition (IC50) was put at 9.62 mM.

`O=C(O)c1cc(O)c(O)c(O)c1` [Gallic acid]: the “Mean latency time (min) ± SEM (2nd day)” value in experiment [2] (20 mg/kg i.p., scopolamine 1 mg/kg i.p. 30 min later, 24 h after scopolamine, cutoff 9 min) amounted to 6.76 ± 1.11 min. Further, in experiment [2] (acquisition day, before treatment, group given 20 mg/kg i.p., n = 8), the “Mean latency time (min) ± SEM (1st day)” value worked out at 0.29 ± 0.03 min. The inhibition at 10000 µM in experiment [1] (± SD) is 84.4 ± 2.25%.

`O=c1c(-c2ccc(O)cc2)coc2cc(O)cc(O)c12` [Genistein]: in experiment [1] (± SD), the inhibition at 10000 µM was less than 0%.

Regarding `O=c1c(O)c(-c2ccc(O)cc2)oc2cc(O)cc(O)c12` [Kaempferol], the inhibition at 10000 µM in experiment [1] (± SD) was less than 0%.

As to `O=c1cc(-c2ccc(O)c(O)c2)oc2cc(O)cc(O)c12` [Luteolin], in experiment [1], the “Enzyme inhibition (% ± SD)” value is given as “no inhibition”. Moreover, the inhibition at 10000 µM in experiment [1] (± SD) was less than 0%.

As to `Oc1ccc(-c2[o+]c3cc(O)cc(O)c3cc2O)cc1` [Pelargonidin], the inhibition at 10000 µM in experiment [1] (± SD) is 25.3 ± 4.13%.

With `O=c1c(O)c(-c2ccc(O)c(O)c2)oc2cc(O)cc(O)c12` [Quercetin], the inhibition at 10000 µM in experiment [1] (± SD) was determined as 99.4 ± 0.76%.

Consider `COc1cc(C(=O)O)ccc1O` [Vanillic acid], for which the inhibition at 10000 µM in experiment [1] (± SD) stood at 35.1 ± 3.21%.
